“Also recorded” adds a separate entry of the source.
What was measured:
[1] = test system: human foreskin fibroblasts (FF1); assay: Cell attachment assay in monolayers (peptide-coated Sepharose beads); format: cell-based
Procedure: (§1) A peptide solution in coupling buffer prepared as above was immediately added to the activated Sepharose beads Sepharose beads were used to fixate the peptides for all in-vitro assays in the column to a final binding of 6 mg peptide per ml gel. The column was closed and shaken overnight at 4° C. very gently to avoid mechanical breakage of the beads. The bottom cap of the column was removed and the solution of ligand/buffer was collected as the Sepharose Beads settled on the filter. The OD280 of the collected buffer was checked to determine the concentration of uncoupled peptide. The gel was washed/aspirated with 5 volumes (˜2 ml) of coupling buffer and gently mixed. Any remaining active groups on the gel were blocked with blocking buffer for 2 hours at room temperature or overnight at 4° C. The Sepharose beads gel with peptides was then washed by 2 cycles each of 5 gel volumes of: • a. 0.1 M Acetate buffer • b. Coupling buffer • c. Storing buffer: azide-coupling buffer: coupling buffer containing 0.1% NaN3 (final concentration)
(§2) The tested peptides (Table 1) were coupled to Sepharose Beads at two concentrations: 6 and 12 mg/ml Sepharose Beads. Sepharose Beads that underwent the coupling procedure without peptide addition (“naked Sepharose Beads”) served as a negative control (referred to herein as “Sepharose Beads-blank”). A cell binding assay was performed with 2 normal cell types: bovine aortal endothelial cells (BAEC) and human foreskin fibroblasts (FF1). Sepharose beads were added to 12 well culture plates with sub-confluent monolayer of the cultured cells (100-300 beads were added to each well). The fraction of Sepharose beads attached to the monolayer was determined at different times.

[2] = test system: bovine aortal endothelial cells (BAEC); assay: as above; format: cell-based; conditions: for cell binding activity (BAEC), in words: 6 mg/ml
Procedure: as §1, §2

[3] = FIG. 3a, concentration not given

GGWTVFQRRMDGSVDFYRK [M-Fic-K] was tested. Which “cell binding activity (FF1), in words” value ([1]; 6 mg peptide/ml) did it give?
Its value is “dramatic change in activity”.

GGWTVFQRRVDGSVDFYRK [M-Fic] was tested. Which “binding rate of BAEC at the lower concentration” value ([2]; 6 mg/ml compared with 12 mg/ml, FIG. 9) did it give?
The value was “slight decrease”.

What about the “Nomarsky optic microscopy of peptide coated beads attached to endothelial cells (BAEC)” value ([2]; 3 weeks of incubation, x100, FIG. 12) of the same sequence?
The value was “formation of small tubes”.

And the “activity in forming bead-cell aggregates and tube like structures” value ([2]; longer incubation times, FIGS. 10-12)?
The value was “highest activity”.

What about the “cell binding activity (FF1), in words” value ([1]; 6 mg peptide/ml) of the same sequence?
Its value is “initially inferior to the positive control; also recorded: retains its activity”.

And the “cell binding activity (FF1), in words” value ([1]; 6 mg peptide/ml, listed as M-fic)?
Its value is “retain most of its activity”.

What about the “time to reach saturated cell binding” value ([1]; 6 mg/ml, FF1) of the same sequence?
Its value is no more than 24 h.

And the “Nomarsky optic microscopy of peptide coated beads attached to FF1” value ([1]; after 3 days of incubation, x100, FIG. 10)?
Its value is “aggregates of cells and beads formed”.

And the “time to saturated attachment” value ([1]; conclusions, cell type and concentration not stated)?
The value was 72 h.

With KGYKYSYKGGWTVFQRRMDGSVDFYR [C-M-Fic2] as the sequence, how does the “cell binding of FF1 reached” value [1, 3] read?
The value was 100%.

And the “kinetic profile of cell binding of FF1” value [1, 3]?
Its value is “good kinetic profile of cell binding (fast attachment)”.

For “KGYKYSYKGGWTVFQRRMDGSVDFYRK [C-M-Fic2-K, C-M-Fic2 with the addition of a lysine group]”, which “cell binding of FF1 reached” value [1, 3] is on record?
Its value is 100%.

What about the “kinetic profile of cell binding of FF1” value [1, 3] of the same sequence?
The value was “good kinetic profile of cell binding (fast attachment)”.

For “KGYKYSYKVSEMKFQRRMDGSVDFYRK [C-M-Fic-a-K]”, which “rate/kinetics of cell binding of FF1 compared with positive control PreC” value ([1]; 6 mg peptide/ml, FIG. 1, FIG. 2) is on record?
Its value is “accelerated the kinetics of cell binding”.

With KGYKYSYKVSEMKVRPAK [C-Fic-a-K] as the sequence, how does the “cell binding of FF1 reached” value ([1]; 6 mg peptide/ml, FIG. 1) read?
The value was 100%.

KGYNYSYKSEMKVRPAK [C-Fic, b25 prints …] was tested. Which “extent of cell binding” value ([2]; 6 mg peptide/ml, after 96 hours of incubation, cell type not stated (FF1 or BAEC)) did it give?
Its value is “about 30%”.

And the “cell binding activity (BAEC), in words” value [2]?
The value was “completely looses reactivity”.

What about the “cell binding activity (BAEC), in words” value ([2]; listed as C-fic) of the same sequence?
The value was “did not attach; also recorded: some activity”.

And the “cell binding activity (FF1), in words” value ([1]; 6 mg peptide/ml)?
Its value is “no reactivity”.

What about the “cell binding activity (FF1), in words” value ([1]; 6 mg peptide/ml, listed as C-fic) of the same sequence?
Its value is “did not attach; also recorded: looses its activity; also recorded: inactive”.

What about the “cell binding of FF1 reached” value ([1]; 12 mg peptide/ml, after 150 hours (FIG. 4b)) of the same sequence?
The value was 100%.

For “KTRWYSMKKTTMKIIPFNR [PreC, positive control peptide, reference compound]”, which “cell binding of FF1 reached” value ([1]; 6 mg peptide/ml, FIG. 1) is on record?
Its value is 100%.
